Measured values reported in patent US7223780B2, “Triazole-derivatives as blood clotting enzyme factor Xa inhibitors” (Sanofi-Aventis Deutschland GmbH, priority 2003, dated 2007).

These molecules were tested against T1, human factor Xa (Homo sapiens, UniProt P00742) (assay: Factor Xa chromogenic assay (substrate S-2765)). Conditions: inhibition constant for factor Xa, calculated from IC50 by Ki=IC50/{1+(substrate concentration/Km)}; 0.5 nM enzyme, 140 μM S-2765, 25° C.; read-out: Ki(FXa).
T1 construct: 25 μl human factor Xa (Enzyme Research Laboratories, Inc; South Bend, Ind.); purchased Enzyme Research Laboratories, Inc; South Bend, Ind
T1 sequence (P00742 235-488 limits assumed): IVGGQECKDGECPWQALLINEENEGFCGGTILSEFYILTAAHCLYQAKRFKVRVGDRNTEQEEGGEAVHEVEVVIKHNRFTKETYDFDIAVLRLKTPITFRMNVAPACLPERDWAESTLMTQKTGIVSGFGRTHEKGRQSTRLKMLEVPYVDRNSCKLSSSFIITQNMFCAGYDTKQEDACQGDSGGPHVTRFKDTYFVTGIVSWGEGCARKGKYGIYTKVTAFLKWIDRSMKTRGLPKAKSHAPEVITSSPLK
T1 sequence (P00742 41-179 partner limits assumed): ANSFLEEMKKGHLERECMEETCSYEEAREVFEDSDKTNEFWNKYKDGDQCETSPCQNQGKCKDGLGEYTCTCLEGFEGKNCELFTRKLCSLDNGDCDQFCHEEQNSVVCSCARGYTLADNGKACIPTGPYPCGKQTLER
Type: biochemical
Experimental: The ability of the compounds of the formula I or II to inhibit factor Xa or factor VIIa or other enzymes like thrombin, plasmin, or trypsin can be assessed by determining the concentration of the compound of the formula I or II that inhibits enzyme activity by 50%, i.e. the IC50 value, which was related to the inhibition constant Ki. Purified enzymes were used in chromogenic assays. The concentration of inhibitor that causes a 50% decrease in the rate of substrate hydrolysis was determined by linear regression after plotting the relative rates of hydrolysis (compared to the uninhibited control) versus the log of the concentration of the compound of formulae I, II, Ia, Ib, Ic, Id, IIa, IIb or IId. For calculating the inhibition constant Ki, the IC50 value was corrected for competition with substrate using the formula Ki=IC50/{1+(substrate concentration/Km)} wherein Km is the Michaelis-Menten constant (Chen and Prusoff, Biochem. Pharmacol. 22 (1973) 3099–3108; I. H. Segal, Enzyme Kinetics, 1975, John Wiley & Sons, New York, 100–125; which were incorporated herein by reference). a) Factor Xa Assay
In the assay for determining the inhibition of factor Xa activity TBS-PEG buffer (50 mM Tris-HCl, pH 7.8, 200 mM NaCl, 0.05% (w/v) PEG-8000, 0.02% (w/v) NaN3) was used. The IC50 was determined by combining in appropriate wells of a Costar half-area microtiter plate 25 μl human factor Xa (Enzyme Research Laboratories, Inc.; South Bend, Ind.) in TBS-PEG; 40 μl 10% (v/v) DMSO in TBS-PEG (uninhibited control) or various concentrations of the compound to be tested diluted in 10% (v/v) DMSO in TBS-PEG; and substrate S-2765 (N((α)-benzyloxycarbonyl-D-Arg-Gly-L-Arg-p-nitroanilide; Kabi Pharmacia, Inc.; Franklin, Ohio) in TBS-PEG.
The assay was performed by pre-incubating the compound of formula I or II plus enzyme for 10 min. Then the assay was initiated by adding substrate to obtain a final volume of 100 μl. The initial velocity of chromogenic substrate hydrolysis was measured by the change in absorbance at 405 nm using a Bio-tek Instruments kinetic plate reader (Ceres UV900HDi) at 25° C. during the linear portion of the time course (usually 1.5 min after addition of substrate). The enzyme concentration was 0.5 nM and substrate concentration was 140 μM.

| Ki [µM] | SMILES |
| --- | --- |
| 0.054 | CC(C)N1CCC(NC(=O)c2nc(-n3cccc3)n(Cc3cc(-c4ccc(Cl)s4)on3)n2)CC1 [Example 1, 1-[5-(5-Chloro-thiophen-2-yl)-isoxazol-3-ylmethyl]-5-pyrrol-1-yl-1H-[1,2,4]triazole-3-carboxylic acid (1-isopropyl-piperidin-4-yl)-amide] |
| 0.08 | CC(C)N1CCC(NC(=O)c2nc(-c3ccccn3)n(Cc3cc(-c4ccc(Cl)s4)on3)n2)CC1 [Example 2, 1-[5-(5-Chloro-thiophen-2-yl)-isoxazol-3-ylmethyl]-5-pyridin-2-yl-1H-[1,2,4]triazole-3-carboxylic acid (1-isopropyl-piperidin-4-yl)-amide] |
| 0.1 | CC(C)N1CCC(NC(=O)c2nc(-c3ccccn3)nn2Cc2cc(-c3ccc(Cl)s3)on2)CC1 [Example 3, 2-[5-(5-Chloro-thiophen-2-yl)-isoxazol-3-ylmethyl]-5-pyridin-2-yl-2H-[1,2,4]triazole-3-carboxylic acid (1-isopropyl-piperidin-4-yl)-amide] |
| 0.33 | CC(C)N1CCC(NC(=O)c2nnn(Cc3cc(-c4ccc(Cl)s4)on3)n2)CC1 [Example 5, 2-[5-(5-Chloro-thiophen-2-yl)-isoxazol-3-ylmethyl]-2H-tetrazole-5-carboxylic acid (1-isopropyl-piperidin-4-yl)-amide] |
